Reference: PMC7400437, “Synthesis and Evaluation of the Antibacterial Activities of 13-Substituted Berberine Derivatives” (Antibiotics, 2020)
Read-outs that look alike come from different tables or passages of the source.

Key:
H. pylori = experiment: MIC, antimicrobial activity assay; assay type: cell-based, Helicobacter pylori (ATCC 43504); conditions: Helicobacter pylori; Table 4, Gram-negative; microaerobic
V. diabolicus = experiment: MIC, antimicrobial activity assay; assay type: cell-based; conditions: Vibrio diabolicus; Table 4, Gram-negative
B. subtilis = experiment: MIC, antimicrobial activity assay; assay type: cell-based, Bacillus subtilis (ATCC 6633); conditions: Bacillus subtilis
C. rodentium = experiment: MIC, antimicrobial activity assay; assay type: cell-based, Citrobacter rodentium (ATCC 51116); conditions: Citrobacter rodentium; Table 4, Gram-negative
C. albicans = experiment: MIC, antifungal activity assay; assay type: cell-based, Candida albicans (DSM 10697); conditions: Candida albicans; Table 1 first screening; 35 °C, 24 h; read-out: Minimal Inhibitory Concentration (MIC) C. albicans
V. alginolyticus = experiment: MIC, antimicrobial activity assay; assay type: cell-based, Vibrio alginolyticus (DSM 2171); conditions: Vibrio alginolyticus; Table 4, Gram-negative
C. perfringens = experiment: microbe, parasite or virus in culture; assay type: cell-based, Clostridium perfringens (ATCC 13124); conditions: Clostridium perfringens, read-out: MIC C. perfringens
S. flexneri = experiment: MIC, antimicrobial activity assay; assay type: cell-based, Shigella flexneri (ATCC 12022); conditions: Shigella flexneri; Table 4, Gram-negative
P. aeruginosa = experiment: MIC, antimicrobial activity assay; assay type: cell-based, Pseudomonas aeruginosa (ATCC 9027); conditions: Pseudomonas aeruginosa
C. difficile = experiment: MIC, antimicrobial activity assay; assay type: cell-based, Clostridium difficile (DSM 1296); conditions: Clostridioides difficile; Table 4, Gram-positive; anaerobic
M. smegmatis = experiment: microbe, parasite or virus in culture; assay type: cell-based, Mycobacterium smegmatis (mc2155, ATCC 700084); conditions: Mycolicibacterium smegmatis, 72 h, read-out: Minimal Inhibitory Concentration (MIC) M. smegmatis
B. cereus = experiment: MIC, antimicrobial activity assay; assay type: cell-based; conditions: Bacillus cereus; Table 4, Gram-positive
S. pyogenes = experiment: MIC, antimicrobial activity assay; assay type: cell-based, Streptococcus pyogenes (DSM 20565); conditions: Streptococcus pyogenes; Table 4, Gram-positive; anaerobic
[1] = test system: P. aeruginosa (Quinolone-resistant); experiment: MIC, antimicrobial activity assay; assay type: cell-based; conditions: Pseudomonas aeruginosa, read-out: MIC P. aeruginosa (Quinolone-resistant)
A. gandavensis = experiment: MIC, antimicrobial activity assay; assay type: cell-based, Arthrobacter gandavensis (DSM 2447); conditions: Arthrobacter gandavensis; Table 4, Gram-positive
E. coli = experiment: MIC, antimicrobial activity assay; assay type: cell-based, Escherichia coli (ATCC 8739); conditions: Escherichia coli
S. enterica = experiment: MIC, antimicrobial activity assay; assay type: cell-based, Salmonella enterica (CIP 80.39); conditions: Salmonella enterica; Table 4, Gram-negative
A. baumannii = experiment: MIC, antimicrobial activity assay; assay type: cell-based, Acinetobacter baumannii (CIP 110431); conditions: Acinetobacter baumannii; Table 4, Gram-negative
C. farmer = experiment: MIC, antimicrobial activity assay; assay type: cell-based, Citrobacter farmeri (ATCC 51633); conditions: Citrobacter farmeri; Table 4, Gram-negative
[2] = test system: BEAS (human airway epithelial cells); experiment: Cytotoxic assay on human cells (resazurin); assay type: cell-based; conditions: Epithelial cell, 48 h, means +/−SD, read-out: Inhibitory Concentration 50 (IC50) on cell viability, BEAS
Protocol: (§1) The toxicity of berberine and berberine’s derivatives on human cells was evaluated using resazurin assay as previously described. Human cells used were BEAS (ATCC CRL-9609), Caco2 (ATCC HTB-37) and HepG2 (ATCC HB-8065) corresponding respectively to human airway epithelial cells, intestinal epithelial cells and liver cells. Cells were cultured in Dulbecco’s modified essential medium (DMEM) supplemented with 10% fetal bovine serum (FBS), 1% L-glutamine and 1% antibiotics (Thermo Fisher Scientific, Illkirch-Graffenstaden, France). Cells were routinely grown on 25 cm^2 flasks and maintained in a 5% CO2 incubator at 37 °C. For toxicity assay, cells were detached using trypsin–EDTA solution (Thermo Fisher Scientific), counted using Mallasez counting chamber and seeded into 96-well cell culture plates (Greiner bio-One, Dominique Dutscher, Brumath, France) at approximately 10,000 cells per well. The cells were left to grow for 48–72 h at 37 °C in a 5% CO2 incubator until they reached confluence. Media from wells was then aspirated and cells were treated with 100 µL of culture media containing increasing concentrations of berberine or berberine’s derivatives obtained by serial dilution (from 0 to 50 µM, 1:2 dilution), DMSO (0.5% DMSO final concentration) was used as negative control. After 48 h incubation at 37 °C in a 5% CO2 incubator, cell viability was evaluated using resazurin based in vitro toxicity assay kit (Sigma-Aldrich) following manufacturer’s instructions. Briefly, cell wells were emptied, and cells were treated with 100 µL of resazurin diluted 1:10 in sterile PBS containing calcium and magnesium (PBS^++, pH 7.4). After 4 h incubation at 37 °C, fluorescence intensity (excitation wavelength of 530 nm/emission wavelength of 590 nm) was measured using Synergy Mx microplate reader (Biotek). The fluorescence values were normalized by the controls (DMSO treated cells) and expressed as percent viability. The IC50 values of berberine and berberine’s derivatives on cell viability (i.e., the concentration of derivative causing a reduction of 50% of the cell viability) were calculated using GraphPad® Prism 7 software (San Diego, CA, USA). t-Test and two ways ANOVA analyses were used to address the significant differences between mean values with significance set at p < 0.05.

[3] = test system: Caco2 (human intestinal epithelial cells); experiment: Cytotoxic assay on human cells (resazurin); assay type: cell-based; conditions: for IC50: Homo sapiens, Caco-2, 48 h, read-out: Inhibitory Concentration 50 (IC50) on cell viability, Caco2; for therapeutic index Caco2: IC50 on Caco2 divided by MIC on S. aureus
Protocol: as §1

[4] = test system: HepG2 (human liver cells); experiment: Cytotoxic assay on human cells (resazurin); assay type: cell-based; conditions: HepG2, 48 h, read-out: Inhibitory Concentration 50 (IC50) on cell viability, HEPG2
Protocol: as §1

L. lactis = experiment: MIC, antimicrobial activity assay; assay type: cell-based, Lactococcus lactis (DSM 20481); conditions: Lactococcus lactis; Table 4, Gram-positive
[5] = test system: S.aureus (Methicillin-resistant); experiment: MIC, antimicrobial activity assay; assay type: cell-based; conditions: Staphylococcus aureus, read-out: MIC S.aureus (Methicillin-resistant)
[6] = test system: E. faecalis (Vancomycin-resistant); experiment: MIC, antimicrobial activity assay; assay type: cell-based, vancomycin-resistant Enterococcus faecalis (DSMZ 13591); conditions: Enterococcus faecalis, read-out: MIC E. faecalis (Vancomycin-resistant)
K. pneumonia = experiment: MIC, antimicrobial activity assay; assay type: cell-based, Klebsiella pneumoniae (DSMZ 26371); conditions: Klebsiella pneumoniae; Table 4, Gram-negative
S. aureus = experiment: MIC, antimicrobial activity assay; assay type: cell-based, Staphylococcus aureus (ATCC 6538P); conditions: Staphylococcus aureus
[7] = test system: B. subtilis (Nisin-resistant); experiment: MIC, antimicrobial activity assay; assay type: cell-based, nisin-resistant B. subtilis (DSMZ 347); conditions: Bacillus subtilis, read-out: MIC B. subtilis (Nisin-resistant)
[8] = test system: selected relevant microorganisms; experiment: Antimicrobial activity, overall statement (active/inactive); assay type: cell-based
[9] = Table 1 first screening, read-out: Minimal Inhibitory Concentration (MIC) B. subtilis
[10] = Table 4, Gram-positive, read-out: MIC B. subtilis
[11] = Table 1 first screening, read-out: Minimal Inhibitory Concentration (MIC) P. aeruginosa
[12] = Table 4, Gram-negative, read-out: MIC P. aeruginosa
[13] = Table 1 first screening, read-out: Minimal Inhibitory Concentration (MIC) E. coli
[14] = Table 4, Gram-negative, read-out: MIC E. coli
[15] = Table 1 first screening, read-out: Minimal Inhibitory Concentration (MIC) S. aureus
[16] = Table 4, Gram-positive, read-out: MIC S. aureus

| SMILES | MIC (H. pylori) [µM] | MIC (V. diabolicus) [µM] | MIC (B. subtilis; [9]) [µM] | MIC (B. subtilis; [10]) [µM] | MIC (C. rodentium) [µM] | MIC (C. albicans) [µM] | MIC (V. alginolyticus) [µM] | MIC (C. perfringens) [µM] | MIC (S. flexneri) [µM] | MIC (P. aeruginosa; [11]) [µM] | MIC (P. aeruginosa; [12]) [µM] | MIC (C. difficile) [µM] | MIC (M. smegmatis) [µM] | MIC (B. cereus) [µM] | MIC (S. pyogenes) [µM] | MIC (E. coli; [13]) [µM] | IC50 [2] [µM] | IC50 [3] [µM] | IC50 [4] [µM] | MIC (S. aureus; [15]) [µM] | further results |
| --- | --- | --- | --- | --- | --- | --- | --- | --- | --- | --- | --- | --- | --- | --- | --- | --- | --- | --- | --- | --- | --- |
| COc1ccc2c(Cc3ccc(/C=C/C(=O)NCCc4ccc(S(N)(=O)=O)cc4)cc3)c3[n+](cc2c1OC)CCc1cc2c(cc1-3)OCO2 [Compound 23, (2E)-3-{4-[(Berberin-13-yl)methyl]phenyl}-N-[2-(4-sulfamoylphenyl)ethyl]prop-2-enamide] | 6.25 | > 100 | 25 | 25 | > 100 | 100 | 6.25 | 50 | > 100 | > 100 | > 100 | 50 | 25 | 12.5 | 6.25 | > 100 | > 50 | > 50 | > 50 | 6.25 | MIC [1]: > 100 µM; MIC (A. gandavensis): 50 µM; MIC (E. coli; [14]): > 100 µM; MIC (S. enterica): > 100 µM; MIC (A. baumannii): > 100 µM; MIC (C. farmer): > 100 µM; therapeutic index Caco2 [3]: 12.40; MIC (L. lactis): 6.25 µM; MIC [5]: 12.5 µM; MIC [6]: 100 µM; MIC (K. pneumonia): > 100 µM; MIC (S. aureus; [16]): 6.25 µM; MIC [7]: 25 µM |
| COc1ccc2c(Cc3ccc(CI)cc3)c3[n+](cc2c1OC)CCc1cc2c(cc1-3)OCO2 [Compound 8, 13-(4-Iodomethylbenzyl)Berberine] | 6.25 | > 100 | 6.25 | 6.25 | > 100 | 50 | 6.25 | 100 | 50 | > 100 | > 100 | 100 | 25 | 12.5 | 12.5 | > 100 | 23.4 ± 4.5 | > 50 | > 50 | 6.25 | MIC [1]: > 100 µM; MIC (A. gandavensis): 3.12 µM; MIC (E. coli; [14]): > 100 µM; MIC (S. enterica): > 100 µM; MIC (A. baumannii): > 100 µM; MIC (C. farmer): > 100 µM; therapeutic index Caco2 [3]: 11.18; MIC (L. lactis): 3.12 to 6.25 µM; MIC [5]: 12.5 µM; MIC [6]: 50 µM; MIC (K. pneumonia): > 100 µM; MIC (S. aureus; [16]): 6.25 µM; MIC [7]: 12.5 µM |
| COc1ccc2c(=O)cc(-c3ccc(Cc4c5[n+](cc6c(OC)c(OC)ccc46)CCc4cc6c(cc4-5)OCO6)cc3)oc2c1 [Compound 26, 2-{4-[(Berberin-13-yl)methyl]phenyl}-7-methoxy-4H-chromen-4-one] | 50 | > 100 | 50 | 50 | > 100 | 100 | 50 | > 100 | > 100 | > 100 | > 100 | > 100 | 50 | 50 | 25 | > 100 | > 50 | > 50 | > 50 | 12.5 | MIC [1]: > 100 µM; MIC (A. gandavensis): 12.5 µM; MIC (E. coli; [14]): > 100 µM; MIC (S. enterica): > 100 µM; MIC (A. baumannii): > 100 µM; MIC (C. farmer): > 100 µM; therapeutic index Caco2 [3]: 20.24; MIC (L. lactis): 6.25 to 12.5 µM; MIC [5]: 25 µM; MIC [6]: > 100 µM; MIC (K. pneumonia): > 100 µM; MIC (S. aureus; [16]): 12.5 µM; MIC [7]: 50 µM |
| COc1ccc2c(CC(=O)c3ccc(OC(=O)c4ccccc4)cc3OC(=O)c3ccccc3)c3[n+](cc2c1OC)CCc1cc2c(cc1-3)OCO2 [Compound 17, 4-[2-(Berberin-13-yl)acetyl]-3-(benzoyloxy)phenyl Benzoate] | 6.25 to 12.5 | > 100 | 12.5 | 12.5 | > 100 | 25 | 1.5 to 3.12 | 50 | > 100 | > 100 | > 100 | 100 | 100 | 25 | 25 | > 100 | 42.4 ± 9.8 | > 50 | > 50 | 6.25 to 12.5 | MIC [1]: > 100 µM; MIC (A. gandavensis): 12.5 µM; MIC (E. coli; [14]): > 100 µM; MIC (S. enterica): > 100 µM; MIC (A. baumannii): > 100 µM; MIC (C. farmer): > 100 µM; therapeutic index Caco2 [3]: 8.54; MIC (L. lactis): 3.12 to 6.25 µM; MIC [5]: 25 µM; MIC [6]: 25 µM; MIC (K. pneumonia): > 100 µM; MIC (S. aureus; [16]): 6.25 µM; MIC [7]: 12.5 to 25 µM |
| COc1ccc2cc3[n+](cc2c1OC)CCc1cc2c(cc1-3)OCO2 [Berberine] | – | – | > 100 | – | – | 100 | – | – | – | > 100 | – | – | 100 | – | – | > 100 | 40.5 ± 5.4 | 21.6 ± 2.7 | > 50 | > 100 | antimicrobial activity (active/inactive) [8]: low to no antimicrobial activity |
| COc1ccc2c(Cc3ccc(CN)cc3)c3[n+](cc2c1OC)CCc1cc2c(cc1-3)OCO2 [Compound 11, 13-(4-Aminomethylbenzyl)Berberine] | – | – | 25 | – | – | 100 | – | – | – | > 100 | – | – | 50 | – | – | > 100 | > 50 | > 50 | > 50 | 25 | – |
